Data taken from ChEMBL document CHEMBL4145594, “Discovery of N-Alkyl Piperazine Side Chain Based CXCR4 Antagonists with Improved Drug-like Properties” (ACS Med Chem Lett, 2018).
Activity calls are given as the source filed them. No cut-off for these calls is given here.

How the values were obtained:
[1] = Stability in human liver microsomes assessed as parent compound remaining at 0.5 uM after 10 mins by LC-MS analysis
[2] = biological target: T1, C-X-C chemokine receptor type 4 (Homo sapiens, UniProt P61073); assay: Agonist activity at CXCR4 in human CCRF-CEM cells measured for 90 secs by calcium flux assay; type: functional, cell-based
T1 sequence (P61073 whole entry): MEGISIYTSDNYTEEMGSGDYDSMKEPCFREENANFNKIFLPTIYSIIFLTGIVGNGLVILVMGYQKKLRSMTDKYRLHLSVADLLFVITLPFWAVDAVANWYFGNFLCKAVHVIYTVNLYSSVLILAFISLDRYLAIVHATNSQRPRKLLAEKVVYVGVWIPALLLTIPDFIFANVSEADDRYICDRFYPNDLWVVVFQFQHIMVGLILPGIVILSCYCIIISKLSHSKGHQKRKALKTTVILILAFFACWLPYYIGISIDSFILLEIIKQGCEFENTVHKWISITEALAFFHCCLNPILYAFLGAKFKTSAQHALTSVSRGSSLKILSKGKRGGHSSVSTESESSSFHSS

[3] = biological target: Muscarinic acetylcholine receptor; assay: Antagonist activity at mAChR in human CCRF-CEM cells assessed as inhibition of acetylcholine-induced calcium flux pretreated for 25 mins followed by acetylcholine addition measured for 90 secs by calcium-dye based assay; type: functional, cell-based
[4] = Stability in rat liver microsomes assessed as parent compound remaining at 0.5 uM after 10 mins by LC-MS analysis
[5] = Stability in mouse liver microsomes assessed as parent compound remaining at 0.5 uM after 10 mins by LC-MS analysis
Cytochrome P450 3A4 = Cytochrome P450 3A4 (Homo sapiens, UniProt P08684); assay: Inhibition of CYP3A4 (unknown origin); type: ADME
Sequence of Cytochrome P450 3A4 (P08684 whole entry): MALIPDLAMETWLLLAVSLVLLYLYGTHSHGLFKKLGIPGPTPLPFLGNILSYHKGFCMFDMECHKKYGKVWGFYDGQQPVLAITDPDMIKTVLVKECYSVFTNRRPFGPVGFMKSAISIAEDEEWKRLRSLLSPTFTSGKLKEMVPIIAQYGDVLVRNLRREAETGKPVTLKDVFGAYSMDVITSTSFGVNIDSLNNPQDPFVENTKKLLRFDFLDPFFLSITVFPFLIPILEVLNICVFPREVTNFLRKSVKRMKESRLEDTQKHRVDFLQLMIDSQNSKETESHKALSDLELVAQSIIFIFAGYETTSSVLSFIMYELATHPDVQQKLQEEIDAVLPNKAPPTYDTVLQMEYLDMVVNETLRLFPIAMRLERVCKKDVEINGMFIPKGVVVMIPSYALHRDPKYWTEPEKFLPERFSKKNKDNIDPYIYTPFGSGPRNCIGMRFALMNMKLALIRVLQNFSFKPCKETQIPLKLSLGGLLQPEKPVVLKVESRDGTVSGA

Cytochrome P450 2D6 = Cytochrome P450 2D6 (Homo sapiens, UniProt P10635)
Sequence of Cytochrome P450 2D6 (P10635 whole entry): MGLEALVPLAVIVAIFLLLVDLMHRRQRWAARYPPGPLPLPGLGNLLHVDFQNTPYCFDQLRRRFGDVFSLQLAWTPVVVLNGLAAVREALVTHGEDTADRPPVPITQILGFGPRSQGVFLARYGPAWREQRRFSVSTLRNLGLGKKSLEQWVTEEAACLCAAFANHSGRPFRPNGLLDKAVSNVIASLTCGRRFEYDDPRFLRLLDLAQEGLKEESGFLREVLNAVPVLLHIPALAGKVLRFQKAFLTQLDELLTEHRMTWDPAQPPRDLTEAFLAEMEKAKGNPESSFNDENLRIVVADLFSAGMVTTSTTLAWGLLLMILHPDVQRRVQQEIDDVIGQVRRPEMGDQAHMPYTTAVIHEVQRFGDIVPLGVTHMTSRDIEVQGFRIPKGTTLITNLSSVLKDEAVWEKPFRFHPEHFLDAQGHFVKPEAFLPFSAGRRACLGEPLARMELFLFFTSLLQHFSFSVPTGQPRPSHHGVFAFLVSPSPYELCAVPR
Description: Inhibition of recombinant human CYP2D6 expressed in insect cell microsomes using AMMC as substrate pretreated for 30 mins followed by NADPH addition measured after 45 mins by fluorescence assay

in vitro = conditions: PAMPA, pH 7.4
Description: Permeability of the compound at pH 7.4 after 4 hrs by PAMPA

[6] = biological target: T1, C-X-C chemokine receptor type 4; assay: Antagonist activity at CXCR4 in human CCRF-CEM cells assessed as inhibition of […]-induced calcium flux pretreated for 25 mins followed by […] addition measured for 90 secs by calcium-dye based assay; type: functional, cell-based
[7] = biological target: T2, Alpha-2A adrenergic receptor (Homo sapiens, UniProt P08913); assay: Inhibition of adrenergic alpha2A receptor (unknown origin)
T2 sequence (P08913 whole entry): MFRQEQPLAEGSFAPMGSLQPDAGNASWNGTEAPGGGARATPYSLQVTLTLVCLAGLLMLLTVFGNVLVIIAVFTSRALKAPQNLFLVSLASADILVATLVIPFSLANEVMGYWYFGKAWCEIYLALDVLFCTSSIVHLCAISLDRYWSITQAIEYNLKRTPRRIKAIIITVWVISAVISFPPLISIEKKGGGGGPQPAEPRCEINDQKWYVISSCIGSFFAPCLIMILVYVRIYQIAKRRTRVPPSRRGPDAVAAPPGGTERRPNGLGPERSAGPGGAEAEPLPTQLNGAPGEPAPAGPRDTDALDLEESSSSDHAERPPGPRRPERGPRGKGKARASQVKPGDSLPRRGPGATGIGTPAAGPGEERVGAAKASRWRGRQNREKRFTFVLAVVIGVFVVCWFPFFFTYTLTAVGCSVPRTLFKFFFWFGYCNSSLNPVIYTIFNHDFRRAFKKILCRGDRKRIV

Mu-type opioid receptor = Mu-type opioid receptor (Homo sapiens, UniProt P35372); assay: Inhibition of mu opioid receptor (unknown origin)
Sequence of Mu-type opioid receptor (P35372 whole entry): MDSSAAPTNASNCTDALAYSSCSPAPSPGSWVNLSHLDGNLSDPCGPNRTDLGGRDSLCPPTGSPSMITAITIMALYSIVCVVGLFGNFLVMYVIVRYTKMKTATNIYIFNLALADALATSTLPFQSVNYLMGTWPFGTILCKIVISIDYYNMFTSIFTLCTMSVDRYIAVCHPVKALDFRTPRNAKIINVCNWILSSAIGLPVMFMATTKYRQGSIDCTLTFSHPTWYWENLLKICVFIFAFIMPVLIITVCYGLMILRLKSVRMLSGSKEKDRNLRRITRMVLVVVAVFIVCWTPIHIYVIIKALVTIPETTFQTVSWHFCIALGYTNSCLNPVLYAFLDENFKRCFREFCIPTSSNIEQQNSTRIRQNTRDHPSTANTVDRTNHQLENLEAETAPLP

[8] = biological target: Acetylcholine receptor subunit alpha (Homo sapiens, UniProt P02708); assay: Inhibition of nAChR alpha1 (unknown origin)
Sequence of Acetylcholine receptor subunit alpha (P02708 whole entry): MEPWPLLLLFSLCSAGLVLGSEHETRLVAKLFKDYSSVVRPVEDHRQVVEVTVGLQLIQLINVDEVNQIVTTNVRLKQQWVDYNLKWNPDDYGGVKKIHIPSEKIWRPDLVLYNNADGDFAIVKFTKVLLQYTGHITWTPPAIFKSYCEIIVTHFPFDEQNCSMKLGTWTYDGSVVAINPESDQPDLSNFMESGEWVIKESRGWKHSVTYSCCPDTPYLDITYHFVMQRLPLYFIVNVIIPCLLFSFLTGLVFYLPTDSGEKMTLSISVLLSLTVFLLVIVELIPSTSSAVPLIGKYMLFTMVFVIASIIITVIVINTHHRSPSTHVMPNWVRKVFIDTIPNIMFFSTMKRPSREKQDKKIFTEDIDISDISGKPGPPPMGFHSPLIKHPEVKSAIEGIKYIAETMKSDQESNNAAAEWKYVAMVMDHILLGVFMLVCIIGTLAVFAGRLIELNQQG

Acetylcholinesterase = Acetylcholinesterase (Homo sapiens, UniProt P22303); assay: Inhibition of AChE (unknown origin)
Sequence of Acetylcholinesterase (P22303 whole entry): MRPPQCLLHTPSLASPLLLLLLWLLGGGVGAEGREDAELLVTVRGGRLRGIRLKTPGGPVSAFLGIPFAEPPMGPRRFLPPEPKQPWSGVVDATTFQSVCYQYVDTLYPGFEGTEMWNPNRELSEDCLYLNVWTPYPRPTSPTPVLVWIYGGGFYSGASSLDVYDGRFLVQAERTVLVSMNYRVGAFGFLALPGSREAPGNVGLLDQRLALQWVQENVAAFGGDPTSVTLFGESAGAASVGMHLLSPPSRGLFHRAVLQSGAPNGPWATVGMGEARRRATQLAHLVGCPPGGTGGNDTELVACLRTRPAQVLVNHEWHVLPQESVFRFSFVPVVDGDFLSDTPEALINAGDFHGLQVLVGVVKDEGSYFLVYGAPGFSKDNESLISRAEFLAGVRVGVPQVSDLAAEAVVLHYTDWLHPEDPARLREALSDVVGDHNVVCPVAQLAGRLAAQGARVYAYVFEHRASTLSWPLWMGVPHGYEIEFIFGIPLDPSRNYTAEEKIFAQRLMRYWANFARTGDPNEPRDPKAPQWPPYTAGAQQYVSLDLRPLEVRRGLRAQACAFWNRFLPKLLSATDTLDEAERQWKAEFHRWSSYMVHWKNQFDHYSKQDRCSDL

Homo sapiens [9] = organism: Homo sapiens; assay: Therapeutic index, ratio of IC50 for adrenergic alpha2A receptor (unknown origin) to IC50 for CXCR4 in human CCRF-CEM cells; type: cell-based
Homo sapiens [10] = organism: Homo sapiens; assay: Therapeutic index, ratio of IC50 for mu opioid receptor (unknown origin) to IC50 for CXCR4 in human CCRF-CEM cells; type: cell-based
Homo sapiens [11] = organism: Homo sapiens; assay: Therapeutic index, ratio of IC50 for nAChR alpha1 (unknown origin) to IC50 for CXCR4 in human CCRF-CEM cells; type: cell-based
Homo sapiens [12] = organism: Homo sapiens; assay: Therapeutic index, ratio of IC50 for AChE (unknown origin) to IC50 for CXCR4 in human CCRF-CEM cells; type: cell-based

In the case of `c1cnc(CN(CCCN2CCNCC2)[C@H]2CCCc3cccnc32)nc1`, the remaining at 10 min, 0.5 µM [1] is reported as 100%, the Activity [2] is reported as “inactive” and the IC50 [3] is reported as over 17 µM. The remaining at 10 min, 0.5 µM [4] was 68%, the remaining at 10 min, 0.5 µM [5] was 78% and the IC50 (Cytochrome P450 3A4) was over 20 µM. For the same compound, the IC50 (Cytochrome P450 2D6) was over 20 µM and the Papp at 4 h (in vitro) was 3.1 ×10⁻⁶ cm/s.

For `c1ccc2c(c1)CN[C@@H](CN(CC[C@H]1CCCNC1)[C@H]1CCCc3cccnc31)C2`, the remaining at 10 min, 0.5 µM [1] was 93%, the Activity [2] was “inactive” and the IC50 [6] was 0.016 µM. For the same compound, the IC50 [3] was over 14 µM, the remaining at 10 min, 0.5 µM [4] was 55% and the remaining at 10 min, 0.5 µM [5] was 56%. It also gave an IC50 (Cytochrome P450 3A4) of over 12 µM, an IC50 [7] of 5.9 µM and an IC50 (Mu-type opioid receptor) of 11.3 µM. For the same compound, the IC50 [8] was 11.3 µM, the IC50 (Acetylcholinesterase) was 10.7 µM and the Ratio IC50 (Homo sapiens [9]) was 100 to 1000. The Ratio IC50 (Homo sapiens [10]) was 100 to 1000, the Ratio IC50 (Homo sapiens [11]) was under 100 and the Ratio IC50 (Homo sapiens [12]) was under 100. The IC50 (Cytochrome P450 2D6) was 0.11 µM and the Papp at 4 h (in vitro) was 5.5 ×10⁻⁶ cm/s.

For `c1ccc2c(c1)CN[C@@H](CN(CC1CCNCC1)[C@H]1CCCc3cccnc31)C2`, the remaining at 10 min, 0.5 µM [1] was 86%, the Activity [2] was “inactive” and the IC50 [6] was 0.065 µM. It also gave an IC50 [3] of over 14 µM, a remaining at 10 min, 0.5 µM [4] of 65% and a remaining at 10 min, 0.5 µM [5] of 13%. For the same compound, the IC50 (Cytochrome P450 3A4) was over 12 µM and the IC50 (Cytochrome P450 2D6) was 1.87 µM.

With `c1cnc2c(c1)CCC[C@@H]2N(CCCN1CCNCC1)Cc1nc2ccccc2s1` the remaining at 10 min, 0.5 µM [1] was 50%, the Activity [2] was “inactive” and the IC50 [3] was over 17 µM. For the same compound, the remaining at 10 min, 0.5 µM [4] was 21%, the remaining at 10 min, 0.5 µM [5] was 45% and the IC50 (Cytochrome P450 3A4) was 9.4 µM. It also gave an IC50 (Cytochrome P450 2D6) of over 20 µM.

With `c1ccc2c(c1)CN[C@@H](CN(CCCN1CCNCC1)[C@H]1CCCc3cccnc31)C2` the remaining at 10 min, 0.5 µM [1] was 100%, the Activity [2] was “inactive” and the IC50 [6] was 0.017 µM. For the same compound, the IC50 [3] was over 14 µM, the remaining at 10 min, 0.5 µM [4] was 100% and the remaining at 10 min, 0.5 µM [5] was 92%. The IC50 (Cytochrome P450 3A4) was over 12 µM, the IC50 [7] was over 30 µM and the IC50 (Mu-type opioid receptor) was over 30 µM. It also gave an IC50 [8] of over 30 µM, an IC50 (Acetylcholinesterase) of over 30 µM and a Ratio IC50 (Homo sapiens [9]) of under 100. For the same compound, the Ratio IC50 (Homo sapiens [10]) was under 100, the Ratio IC50 (Homo sapiens [11]) was under 100 and the Ratio IC50 (Homo sapiens [12]) was under 100. For the same compound, the IC50 (Cytochrome P450 2D6) was 2.14 µM.

For `CN1CCN(CCCN(C[C@H]2Cc3ccccc3CN2)[C@H]2CCCc3cccnc32)CC1`, the remaining at 10 min, 0.5 µM [1] was 72%, the Activity [2] was “inactive” and the IC50 [6] was 0.125 µM. The IC50 [3] was 6.56 µM, the remaining at 10 min, 0.5 µM [4] was 10% and the remaining at 10 min, 0.5 µM [5] was 53%. The IC50 (Cytochrome P450 3A4) was over 20 µM, the IC50 (Cytochrome P450 2D6) was 5.6 µM and the Papp at 4 h (in vitro) was 36 ×10⁻⁶ cm/s.

For `CC(C)N1CCN(CCCN(C[C@H]2Cc3ccccc3CN2)[C@H]2CCCc3cccnc32)CC1`, the remaining at 10 min, 0.5 µM [1] was 46%, the Activity [2] was “inactive” and the IC50 [6] was 0.062 µM. It also gave an IC50 [3] of over 17 µM, a remaining at 10 min, 0.5 µM [4] of 4% and a remaining at 10 min, 0.5 µM [5] of 58%. For the same compound, the IC50 (Cytochrome P450 3A4) was over 20 µM, the IC50 (Cytochrome P450 2D6) was 6.65 µM and the Papp at 4 h (in vitro) was 34.4 ×10⁻⁶ cm/s.

With `NCCCCN(C[C@H]1Cc2ccccc2CN1)[C@H]1CCCc2cccnc21` the Activity [2] was “inactive”, the IC50 [7] was 3.7 µM and the IC50 (Mu-type opioid receptor) was 14.9 µM. The IC50 [8] was over 30 µM and the IC50 (Acetylcholinesterase) was over 30 µM.

For `CCN1CCN(CCCN(C[C@H]2Cc3ccccc3CN2)[C@H]2CCCc3cccnc32)CC1`, the remaining at 10 min, 0.5 µM [1] was 59%, the Activity [2] was “inactive” and the IC50 [6] was 0.033 µM. It also gave an IC50 [3] of over 17 µM, a remaining at 10 min, 0.5 µM [4] of 1% and a remaining at 10 min, 0.5 µM [5] of 19%. For the same compound, the IC50 (Cytochrome P450 3A4) was over 20 µM, the IC50 (Cytochrome P450 2D6) was over 20 µM and the Papp at 4 h (in vitro) was 31.7 ×10⁻⁶ cm/s.

In the case of `c1ccc2c(c1)CN[C@@H](CN(CCC1CCNCC1)[C@H]1CCCc3cccnc31)C2`, the remaining at 10 min, 0.5 µM [1] is reported as 66%, the Activity [2] is reported as “inactive” and the IC50 [6] is reported as 0.15 µM. It also gave an IC50 [3] of over 14 µM, a remaining at 10 min, 0.5 µM [4] of 17% and a remaining at 10 min, 0.5 µM [5] of 32%. The IC50 (Cytochrome P450 3A4) was over 12 µM, the IC50 (Cytochrome P450 2D6) was 1.04 µM and the Papp at 4 h (in vitro) was 1.9 ×10⁻⁶ cm/s.

With `c1ccc2c(c1)CN[C@@H](CN(CCCN1CCN(C3CC3)CC1)[C@H]1CCCc3cccnc31)C2` the remaining at 10 min, 0.5 µM [1] was 21%, the Activity [2] was “inactive” and the IC50 [6] was 0.05 µM. For the same compound, the IC50 [3] was over 17 µM, the remaining at 10 min, 0.5 µM [4] was 2% and the remaining at 10 min, 0.5 µM [5] was 3%. It also gave an IC50 (Cytochrome P450 3A4) of over 20 µM, an IC50 (Cytochrome P450 2D6) of 6.04 µM and a Papp at 4 h (in vitro) of 50.5 ×10⁻⁶ cm/s.
